We go through two molecules from BindingDB's records for doi:10.1021/jm960459x (University of Minnesota, 1996).

A word on the pKi: it is −log10 of the Ki, conventionally taken in molar units. A higher pKi goes with a low Ki.

SMILES strings stand for the structures. pKi: −log10 of the molar value.

The nature of this assay: Compound was tested for the binding affinity and selectivity by competitive inhibition of radioligands on opioid delta receptor in guinea pig brain membranes.

`CN(C(=O)Cc1ccc(Cl)c(Cl)c1)[C@H](CN1CCCC1)c1cccc(NC(=O)[C@H](N)CC(=O)O)c1` [(R)-3-Amino-N-[3-((S)-1-{[2-(3,4-dichloro-phenyl)-acetyl]-methyl-amino}-2-pyrrolidin-1-yl-ethyl)-phenyl]-succinamic acid] had a pKi of 6.24.
The result for `CN(C(=O)Cc1ccc(Cl)c(Cl)c1)[C@H](CN1CCCC1)c1cccc(NC(=O)[C@@H](N)CC(=O)O)c1` [(S)-3-Amino-N-[3-((S)-1-{[2-(3,4-dichloro-phenyl)-acetyl]-methyl-amino}-2-pyrrolidin-1-yl-ethyl)-phenyl]-succinamic acid] reads 5.97.
